The subject of assay [1] is P. acnes ATCC 6919. Nature of the assay: MIC determination (NCCLS broth microdilution), P. acnes. It is filed as cell-based, Propionibacterium acnes. The settings on record: lowest concentration with >=80% inhibition, 24 h at 34° C. The protocol:
(§1) The compounds of this invention are evaluated for their antibacterial activity as per the guidelines and procedures prescribed by the National Committee for Clinical Laboratory Standards (NCCLS) (cf., NCCLS Document M7-A3, 1993-Antimicrobial Susceptibility Testing). 5.1.1 Protocol for Determining Minimum Inhibitory Concentration (MIC) A useful protocol for MIC determination is as follows: • 1. Approximately 2.5 mg of the compounds to be tested was weighed into cryovials. • 2. 5 mg/ml stock solutions were made by adding DMSO to the samples accordingly. • 3. 256 μg/ml working solutions were made by using the 5 mg/ml stock solutions and adding sterile distilled water accordingly. • 4. A Beckman 2000 Automated Workstation was programmed to load 96-well plates with broth and compounds as follows: • 100 μl of the appropriate broth was added to columns 1-11. • 200 μl of the appropriate broth was added to column 12. • 100 μl of compounds at the 256 μg/ml working solution were added to column 1 (one compound per row). • Two-fold serial dilutions were done from columns 1-10. • Column 11 served as the growth control. • 5. The ten-organism panel was plated from stock vials stored at −80° C. and incubated for 24 hours at 34° C. The organisms were then sub-cultured and incubated for 24 hours at 34° C. • The inoculums were first prepared in sterile distilled water with a target of 0.09-0.11 absorbance at 620 nm wavelength. • A 1/100 dilution was made into the appropriate broth. • 100 μl of broth with organism was added to columns 1-11. • Column 12 served as the blank control. • 6. The completed 96 well plates were incubated for 24 hours at 34° C. The 96-well plates were then read using a Beckman Automated Plate Reader at 650 nm wavelength. The MIC was determined through calculations involving the growth control (column 11) and blank control (column 12). 5.1.2 MIC Calculation The absorbance readings from the Biomek Automated Plate Reader are used to determine the percent inhibition for each test well. The formula used is as follows: [formula] • ABSTest: Absorbance of the test well. • ABSblank: Absorbance of the blank well in the same row as the test well (column 12). • ABSgrowth: Mean absorbance of the growth control wells (column 11). […] These procedures were used to obtain the representative microbiological data for the compounds 10 to 19 shown in Table 1 as MIC (Minimum Inhibitory Concentration) with the values expressed as micrograms per milliliter (mcg/ml).
On the technique in general: Dilution methods test growth across graded concentrations, often in twofold steps.

Assay [2] deals with S. epidermidis ATCC 12228. Nature of the assay: MIC determination (NCCLS broth microdilution), S. epidermidis. It is filed as cell-based. The note with it: lowest concentration with >=80% inhibition, 24 h at 34° C. The procedure: as §1
The subject of assay [3] is S. aureus ATCC 29213. Description: MIC determination (NCCLS broth microdilution), S. aureus. It is filed as cell-based. The note with it: lowest concentration with >=80% inhibition, 24 h at 34° C. The procedure:
as §1

Assay [4] concerns IL-8. Description: Inhibition of IL-8 pro-inflammatory cytokine release. Type of assay: cell-based. The source says: The selective inhibition of the release of pro-inflammatory cytokines is shown in Table 2 with representative compounds 10, 11, and 30-35.
The subject of assay [5] is IL-1β. Description: Inhibition of IL-1β secretion from human PBMC stimulated with LPS. The settings on record: 1 μg/ml LPS, 24 h; for pIC50: read-out: IC50 IL-1β release. Type of assay: cell-based. The protocol: (§2) 5.2 Inhibition of IL-β, IL-6, or TNF-α Secretion from Human Peripheral Blood […] (PBMC) Stimulated with LPS PBMC (5×10^5 cells) suspended in RPMI 1640 culture medium supplemented with 1% penicillin and 1% streptomycin are pre-incubated for 30 min. at 37° C. with the test compound, reference compound, or culture medium (control). Thereafter, 1 μg/ml LPS is added to induce the cytokine secretion and the mixture is incubated for 24 h at 37° C. For basal control measurements, LPS is omitted from the incubation medium. Following incubation, the samples are centrifuged at 250×g for 5 min. at 4° C. and the supernatants are collected. The amount of secreted IL-1β, 1L-6, or TNF-α present in the supernatant is quantified using an EIA detection kit (R&D systems). The photometric measurements are made with a microplate reader (Ultra, Tecan). The results are expressed as a percent inhibition of the control secretion induced by LPS. The standard inhibitory reference compounds for IL-1β, IL-6 or TNF-α are cycloheximide and dexamethasone, respectively, which are tested in each experiment at several concentrations to obtain an inhibition curve from which their IC50 values are calculated (Schindler, R., et al., (1990). “Correlations and interactions in the production of interleukin-6 (IL-6), IL-1, and tumor necrosis factor (TNF) in human blood mononuclear cells: IL-6 suppresses IL-1 and TNF”, Blood, 75:40. These procedures were used to determine the inhibition (and selectivity) of cytokine release by representative compounds […] shown in Table 2. Thus, the invention provides antibiotics that are generically called borinic acid complexes, most preferably derived from disubstituted borinic acids.

The subject of assay [6] is TNF-α. Description: Inhibition of TNF-α secretion from human PBMC stimulated with LPS. Type of assay: cell-based. The note with it: 1 μg/ml LPS, 24 h; for pIC50: read-out: IC50 TNF-α release. The procedure:
as §2

The subject of assay [7] is IL-6. Description: Inhibition of IL-6 secretion from human PBMC stimulated with LPS. Type of assay: cell-based. The note with it: 1 μg/ml LPS, 24 h; for pIC50: read-out: IC50 IL-6 release. The procedure: as §2

pIC50: −log10 of the molar value. Values after ≈ are worked out from the molar mass of the structure shown.

Here are results for 13 compounds from US7652000B2, “Boron-containing compounds and methods of use” (Anacor Pharmaceuticals, Inc., priority 2004, dated 2010).

With `CC[C@H]1OC(=O)[C@H](C)[C@@H](O[C@H]2C[C@@](C)(OC)[C@@H](O)[C@H](C)O2)[C@H](C)[C@@H](O[C@@H]2O[C@H](C)C[C@H](N(C)C)[C@H]2O)[C@](C)(O)C[C@@H](C)C(=O)[C@H](C)[C@@H](O)[C@]1(C)O` [erythromycin, reference compound], the MIC in assay [1] (Cutibacterium acnes, ATCC6919) is 1 to 2 µg/mL (≈ 1.36 to 2.73 µM); in assay [2] (Staphylococcus epidermidis, ATCC12228), 0.5 µg/mL (≈ 0.681 µM); in assay [3] (Staphylococcus aureus, ATCC29213), 0.5 µg/mL (≈ 0.681 µM).
Regarding `Cc1cc(Cl)ccc1B(OC(=O)c1ncccc1O)c1ccc(Cl)cc1C` [Compound 11, Bis(2-methyl-4-chlorophenyl)borinic acid 3-Hydroxypicolinate ester], the “MIC P. acnes ATCC 6919” value in assay [1] came to 0.3 µg/mL (≈ 0.75 µM). Further, in assay [4], the “Inhibition (%) at 25 μM IL-8 release” value is given as “(122%)”. For the same compound, in assay [5], the pIC50 was 4.82 and the “Inhibition (%) at 25 μM IL-1β release” value is reported as “(103%)”. Moreover, in assay [6], the pIC50 was 4.83 and the “Inhibition (%) at 25 μM TNF-α release” value was “(101%)”. In assay [7], the pIC50 is 5.55 and the “Inhibition (%) at 25 μM IL-6 release” value is given as “(102%)”. The “MIC S. epidermidis ATCC 12228” value in assay [2] is 0.25 µg/mL (≈ 0.625 µM). The “MIC S. aureus ATCC 29213” value in assay [3] is 1 µg/mL (≈ 2.5 µM).
In the case of `Cc1ccc(B(OC(=O)c2ncccc2C(=O)O)c2ccc(C)cc2Cl)c(Cl)c1` [Compound 14, Bis(2-Chloro-4-methylphenyl)borinic acid 3-carboxypicolinate ester], the “MIC P. acnes ATCC 6919” value in assay [1] came out at 3 µg/mL (≈ 7.01 µM). Further, the “MIC S. epidermidis ATCC 12228” value in assay [2] came to 4 µg/mL (≈ 9.34 µM). The “MIC S. aureus ATCC 29213” value in assay [3] amounted to 0.125 µg/mL (≈ 0.292 µM).
`Cc1ccc(B(OC(=O)c2ncccc2O)c2ccc(O)cc2)cc1Cl` [Compound 33, (3-chloro-4-methylphenyl)(4-hydroxyphenyl)borinic acid 3-hydroxypicolinate ester]: the “Inhibition (%) at 25 μM IL-1β release” value in assay [5] amounted to 60%. For the same compound, the “Inhibition (%) at 25 μM TNF-α release” value in assay [6] was 48%.
Turning to `CC(=O)Nc1ccc(O)c(C(=O)OB(c2cccc(Cl)c2)c2cccc(Cl)c2)n1` [Compound 16, Bis(3-chlorophenyl)borinic acid 6-Acetylamino-3-hydroxypicolinate ester], in assay [1], the “MIC P. acnes ATCC 6919” value amounted to 10 µg/mL (≈ 23.3 µM). Also, the “MIC S. epidermidis ATCC 12228” value in assay [2] came to 8 µg/mL (≈ 18.6 µM). Further, the “MIC S. aureus ATCC 29213” value in assay [3] was 0.5 µg/mL (≈ 1.17 µM).
On to `COc1ccc(Cl)cc1B(OC(=O)c1ncccc1O)c1cccc(Cl)c1` [Compound 15, (2-Methoxy-5-chlorophenyl)(3-chlorophenyl)borinic acid 3-Hydroxypicolinate ester], for which the “MIC P. acnes ATCC 6919” value in assay [1] worked out at 3 µg/mL (≈ 7.46 µM). For the same compound, the “MIC S. epidermidis ATCC 12228” value in assay [2] was determined as 4 µg/mL (≈ 9.95 µM). Further, the “MIC S. aureus ATCC 29213” value in assay [3] was found to be 4 µg/mL (≈ 9.95 µM).
Consider `Cc1ccc(B(OC(=O)c2ncccc2OCCN2CCOCC2)c2ccc(C)c(Cl)c2)cc1Cl` [Compound 32, Bis(3-chloro-4-methylphenyl)borinic acid 3-[(2-Morpholinoethyl)oxy]picolinate ester], for which the “Inhibition (%) at 25 μM IL-1β release” value in assay [5] was determined as 34%. Besides, the “Inhibition (%) at 25 μM TNF-α release” value in assay [6] worked out at 101%.
As to `O=C(OB(c1ccc(Cl)cc1F)c1c(Cl)ccc(Br)c1F)c1ncccc1O` [Compound 13, (3-Bromo-6-chloro-2-fluorophenyl)(2-fluoro-4-chlorophenyl)borinic acid 3-Hydroxypicolinate ester], the “MIC P. acnes ATCC 6919” value in assay [1] turned out to be 3 µg/mL (≈ 6.16 µM). In assay [2], the “MIC S. epidermidis ATCC 12228” value was determined as 1 µg/mL (≈ 2.05 µM). Also, the “MIC S. aureus ATCC 29213” value in assay [3] is 2 µg/mL (≈ 4.11 µM).
For `Cc1ccc(B(CCc2ccccc2)OC(=O)c2ncccc2O)cc1Cl` [Compound 12, (3-chloro-4-methylphenyl)(phenethyl)borinic acid 3-Hydroxypicolinate ester], in that order: 3 µg/mL (≈ 7.9 µM), 1 µg/mL (≈ 2.63 µM) and 0.5 µg/mL (≈ 1.32 µM).
As for `CCOC(=O)c1cccnc1C(=O)OB(c1ccc(C)c(Cl)c1)c1ccc(C)c(Cl)c1` [Compound 30, Bis(3-chloro-4-methylphenyl)borinic Acid 3-(Ethyloxycarbonyl)picolinate Ester], the “Inhibition (%) at 25 μM IL-1β release” value in assay [5] is 76%. Besides, in assay [6], the “Inhibition (%) at 25 μM TNF-α release” value is given as 101%.
As for `Cc1ccc(B(OC(=O)c2ncccc2O)c2ccc(C)c(Cl)c2)cc1Cl` [Compound 10, Bis(3-chloro-4-methylphenyl)borinic acid 3-hydroxypicolinate ester], in assay [1], the “MIC P. acnes ATCC 6919” value turned out to be 0.3 µg/mL (≈ 0.75 µM). Also, the “Inhibition (%) at 25 μM IL-8 release” value in assay [4] was “(122%)”. In assay [5], the pIC50 was 4.97 and the “Inhibition (%) at 25 μM IL-1β release” value is “(99%)”. Further, in assay [6], the pIC50 is 5.07 and the “Inhibition (%) at 25 μM TNF-α release” value is “(100%)”. Moreover, in assay [7], the pIC50 was 5.44 and the “Inhibition (%) at 25 μM IL-6 release” value is reported as “(80%)”. In assay [2], the “MIC S. epidermidis ATCC 12228” value was determined as 1 µg/mL (≈ 2.5 µM). Besides, in assay [3], the “MIC S. aureus ATCC 29213” value stood at 2 µg/mL (≈ 5 µM).
`Cc1ccc(B(OC(=O)c2ccc(C(=O)O)cn2)c2ccc(C)c(Cl)c2)cc1Cl` [Compound 31, Bis(3-chloro-4-methylphenyl)borinic acid 5-Carboxypicolinate ester]: the “Inhibition (%) at 25 μM IL-1β release” value in assay [5] is 80%. The “Inhibition (%) at 25 μM TNF-α release” value in assay [6] is 101%.
For the compound `O=C(OB(c1ccc(Cl)cc1F)c1c(Cl)ccc(Br)c1F)c1ncccc1O` [Compound 34, (3-Bromo-6-chloro-2-fluorophenyl)(4-chloro-2-fluorophenyl)borinic acid 3-hydroxypicolinate ester], the “Inhibition (%) at 25 μM IL-1β release” value in assay [5] is 100%. Also, in assay [6], the “Inhibition (%) at 25 μM TNF-α release” value stood at 101%. For the same compound, the “Inhibition (%) at 25 μM IL-6 release” value in assay [7] is given as 108%.

As a reminder, the MIC is the lowest concentration that inhibits growth of the organism. Read a high MIC as a need for much substance. Broadly, the pIC50 is −log10 of the IC50, conventionally taken in molar units.
